According to US8519145B2, “Aryl compounds as PPAR ligands and their use” (Seoul National University Industry Foundation, priority 2006, dated 2013):
Like-named read-outs stand apart in the source and are kept apart here.

Tests used:
hPPARδ [1] = molecular target: T1, hPPARδ (Homo sapiens, UniProt Q03181); experiment: Transfection assay (luciferase reporter), PPARδ; assay type: cell-based; conditions: CV-1 cells, full length PPAR plasmid, 24 hours
T1 construct: Full length PPARs plasmid DNA; expressed in transfected cells; host or cells: CV-1 cells
T1 sequence (Q03181 1-441): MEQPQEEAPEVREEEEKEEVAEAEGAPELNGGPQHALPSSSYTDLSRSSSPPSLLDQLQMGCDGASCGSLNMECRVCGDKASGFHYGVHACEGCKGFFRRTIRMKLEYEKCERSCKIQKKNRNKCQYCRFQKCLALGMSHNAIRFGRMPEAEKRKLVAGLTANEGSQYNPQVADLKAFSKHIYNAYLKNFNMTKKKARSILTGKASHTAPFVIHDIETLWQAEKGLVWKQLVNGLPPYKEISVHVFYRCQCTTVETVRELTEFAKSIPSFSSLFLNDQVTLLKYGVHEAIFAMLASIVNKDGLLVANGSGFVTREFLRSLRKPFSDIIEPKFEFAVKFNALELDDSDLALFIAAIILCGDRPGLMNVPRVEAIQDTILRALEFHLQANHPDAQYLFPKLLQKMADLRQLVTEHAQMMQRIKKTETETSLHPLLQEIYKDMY
Protocol: (§1) The PPARδ activity of the compound represented by formula (I) of the present invention was confirmed by transfection assay. In addition, the selectivity to PPAR subtypes, PPARα and PPARγ was examined. Cytotoxicity was tested by MTT assay and in vivo activity was investigated by animal experiment.
(§2) CV-1 cells were used in this assay. The cells were inoculated in a 96-well plate containing DMEM supplemented with 10% FBS, DBS (delipidated) and 1% penicillin/streptomycin and cultured in a 37° C., 5% CO2 incubator. The experiment was performed according to the steps of inoculation, transfection, sample treatment and confirmation. Particularly, CV-1 cells were inoculated in a 96 well-plate (5000 cells/well), followed by transfection 24 hours later. Full length PPARs plasmid DNA, reporter DNA confirming PPARs activity owing to its luciferase activity, β-galactosidase DNA providing information on transfection efficiency, and transfection reagent were used for the transfection. Samples were dissolved in dimethylsulfoxide (DMSO), which were treated to the cells via media at different concentrations. After culturing the cells in the incubator for 24 hours, the cells were lysed by using lysis buffer. Luciferase activity and β-galactosidase activity were measured with Luminometer and a microplate reader. The obtained values of luciferase were modified by the values of β-galactosidase. A graph was made with those values and EC50 was calculated.

hPPARα = molecular target: T2, hPPARα (Homo sapiens, UniProt Q07869); experiment: Transfection assay (luciferase reporter), PPARα; assay type: cell-based; conditions: CV-1 cells, full length PPAR plasmid, 24 hours
T2 construct: Full length PPARs plasmid DNA; expressed in transfected cells; host or cells: CV-1 cells
T2 sequence (Q07869 1-468): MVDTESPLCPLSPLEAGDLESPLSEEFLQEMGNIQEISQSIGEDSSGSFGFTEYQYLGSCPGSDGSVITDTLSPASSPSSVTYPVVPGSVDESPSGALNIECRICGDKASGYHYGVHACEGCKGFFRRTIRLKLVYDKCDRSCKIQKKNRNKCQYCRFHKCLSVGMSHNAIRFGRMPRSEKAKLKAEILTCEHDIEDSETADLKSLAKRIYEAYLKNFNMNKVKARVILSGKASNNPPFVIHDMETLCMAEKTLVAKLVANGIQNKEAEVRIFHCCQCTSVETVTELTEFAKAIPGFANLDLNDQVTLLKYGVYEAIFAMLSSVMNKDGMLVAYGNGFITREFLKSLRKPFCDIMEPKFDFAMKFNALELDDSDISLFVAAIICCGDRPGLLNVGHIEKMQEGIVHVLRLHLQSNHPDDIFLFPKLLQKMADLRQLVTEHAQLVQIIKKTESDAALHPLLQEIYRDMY
Protocol: as §1, §2

hPPARγ = molecular target: T3, hPPARγ (Homo sapiens, UniProt P37231); experiment: Transfection assay (luciferase reporter), PPARγ; assay type: cell-based; conditions: CV-1 cells, full length PPAR plasmid, 24 hours
T3 construct: Full length PPARs plasmid DNA; expressed in transfected cells; host or cells: CV-1 cells
T3 sequence (P37231 1-505): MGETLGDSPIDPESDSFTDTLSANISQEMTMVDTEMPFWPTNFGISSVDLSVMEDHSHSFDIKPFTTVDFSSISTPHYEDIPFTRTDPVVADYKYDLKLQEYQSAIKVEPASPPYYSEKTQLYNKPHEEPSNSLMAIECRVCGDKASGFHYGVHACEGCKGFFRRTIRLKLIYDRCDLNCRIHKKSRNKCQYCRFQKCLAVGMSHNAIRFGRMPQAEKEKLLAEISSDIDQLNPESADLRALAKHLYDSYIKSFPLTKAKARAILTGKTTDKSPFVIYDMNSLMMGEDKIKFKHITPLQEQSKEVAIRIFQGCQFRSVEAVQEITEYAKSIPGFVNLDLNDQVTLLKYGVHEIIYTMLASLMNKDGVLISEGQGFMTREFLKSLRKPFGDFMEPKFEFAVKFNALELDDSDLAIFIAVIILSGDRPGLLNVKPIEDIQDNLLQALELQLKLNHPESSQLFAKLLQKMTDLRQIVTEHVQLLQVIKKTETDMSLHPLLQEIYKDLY
Protocol: as §1, §2

[2] = Obesity inhibitory effect, high-fat feed mice; assay type: in vivo, C57BL/6 mice; conditions: 10 mg/kg/day oral, 60 days, feeds containing 35% fat
Protocol: Obesity Inhibitory Effect
An animal test using mice was performed to confirm the in vivo effect of the compound of the present invention. C57BL/6 (SLC Co.) mice at 8 weeks were used. To induce obesity, feeds containing 35% fat were given. While feeding such high-fat feeds for 60 days, vehicle, S14, S46 and S106 (10 mg/kg/day) were orally administered.

[3] = GTT (glucose tolerance test), diabetes improving effect; assay type: in vivo, mice; conditions: 10 mg/Kg/day oral; for fasting blood glucose versus control: 57 days; for diabetes improving effect: GTT
Protocol: Diabetes Improving Effect
GTT (glucose tolerance test) was performed to confirm the diabetes improving effect of the compound of the present invention. Glucose (1.5 g/Kg) was intra-abdominally administered to the mice pre-treated orally with samples for 57 days. Blood glucose was measured every hour. Fasting blood glucose was lower in the S14, S46 and S106 (10 mg/Kg/day) treated groups than in control. […] In the meantime, the blood glucose level was not recovered to normal in the vehicle treated group even after 120 minutes.

[4] = Muscle endurance test (treadmill), treatment during pregnancy and/or lactation; assay type: in vivo, mice; conditions: 10 mg/Kg/day
Protocol: Muscle Endurance Strengthening and Muscle Function Enhancing Effect
An animal test was performed to confirm muscle endurance strengthening and muscle function enhancing effect of the composition of the present invention. Most muscles are generated in developmental stage. Thus, S14, S46 and S106 (10 mg/Kg/day) were treated to pregnant mice in the period of either pregnancy or lactation or both pregnancy and lactation. Weight gaining and growth rate were not much different between fetuses of the control group and the treatment group. Muscles were observed after removing skin. As a result, muscles of the treatment group were red, unlike the control. ATPase staining and immunostaining were performed. As a result, type I muscle fiber was increased in the treatment group. The role of the changes of the muscle fiber in the enhancement of muscle endurance and muscle function was investigated by using treadmill test. As a result, running time was much extended in the treatment group, compared with the control.

[5] = Muscle endurance test (treadmill) in adult mice with forced exercise; assay type: in vivo, C57BL/6 mice; conditions: 10 mg/kg oral, adult mice at 10 weeks, 30 days treadmill exercise
Protocol: Particularly, S14, S46 and S106 were orally administered to C57BL/6 mice at 10 weeks at the concentration of 10 mg/kg, during which the mice were forced to exercise. The exercise was performed with treadmill for […] once a day for 30 days, precisely at the speed of 2 meter/min for the first 5 minutes, at 5 meter/min for 5 minutes, at 8 meter/min for 5 minutes and at 20 meter/min for the last 5 minutes. At the finish, muscle endurance and muscle function enhancing effect was tested by using treadmill. As a result, the time (S14 treated group: 1.5 fold, S46 treated group: 1.3 fold, S106 treated group: 1.4 fold increased) and distance (S14 treated group: 1.5 fold, S46 treated group: 1.3 fold, S106 treated group: 1.4 fold increased) of exercise were all increased in the treatment group, compared with the control.

[6] = Morris water maze test, treatment during pregnancy and lactation; assay type: in vivo; conditions: 10 mg/kg oral to pregnant mice in pregnancy and lactation; control 24.2 sec
Protocol: An animal test was performed to investigate the therapeutic effect of the compound of the present invention on dementia and Parkinson's disease based on the memory improving effect thereof. To confirm the effect of the compound of the present invention in the period of brain development, the compound was orally administered to pregnant mice at the concentration of 10 mg/kg in the periods of pregnancy and lactation. Morris water maze test was performed to detect any changes of the brain functions of the treatment group and the control group. This test facilitates the study of spatial learning and memory, which largely depends on the hippocampus in the brain.

[7] = Morris water maze test in LPS brain disease animal model; assay type: in vivo, C57BL/6 mice
Protocol: The therapeutic effect of the compound of the present invention on dementia and Parkinson's disease based on the memory improving effect thereof was investigated using brain disease animal model (C57BL/6 mice at 10 weeks). First, LPS was injected into the mouse brain to construct brain disease animal model. The mice were divided into four groups according to the administration and exercise. The exercise was performed with treadmill at the speed of 2 meter/min for the first 5 minutes, at 5 meter/min for 5 minutes, at 8 meter/min for 5 minutes and at 20 meter/min for the last 5 minutes. At the finish, Morris water maze test was performed. As a result, the therapeutic effect of the compound of the invention on dementia and Parkinson's disease via memory enhancement by the compound and exercise was confirmed in the brain disease animal model.

hPPARδ [8] = molecular target: T1, hPPARδ; conditions: literature, cited from earlier work
[9] = treated in pregnancy + lactation

Row | SMILES | EC50 (hPPARδ [1]) [nM] | EC50 hPPARα (hPPARα) | EC50 hPPARγ (hPPARγ) | weight increase compared with the vehicle group [2] [%] | fasting blood glucose versus control [3] | diabetes improving effect [3] | increasing rate (treatment group/control group), length ([4]; treated in lactation) [times] | increasing rate (treatment group/control group), time ([4]; treated in lactation) [times] | increasing rate (treatment group/control group), length [4, 9] [times] | increasing rate (treatment group/control group), time [4, 9] [times] | increasing rate (treatment group/control group), length ([4]; treated in pregnancy) [times] | increasing rate (treatment group/control group), time ([4]; treated in pregnancy) [times] | distance of exercise, increase compared with the control [5] [fold] | time of exercise, increase compared with the control [5] [fold] | average time spent to find the platform [6] [s] | Results of water maze test ([7]; Exercise (X)) [s] | Results of water maze test ([7]; Exercise (◯)) [s] | EC50 (hPPARδ [8]; human PPARδ) [nM] | selectivity to hPPARδ over PPARα or PPARγ (hPPARδ [8]) [times]
1 | Cc1cc(SC(Cc2ccccc2)c2ccc(-c3ccc(C(F)(F)F)cc3)cc2)ccc1OC(C)(C)C(=O)O (centres unmarked) [Compound 22] | 9.3 | ia | ia | – | – | – | – | – | – | – | – | – | – | – | – | – | – | – | –
2 | CCC(Oc1ccc(SC(Cc2ccccc2)c2ccc(-c3ccc(C(F)(F)F)cc3)cc2)cc1C)C(=O)O (centres unmarked) [Compound 23] | 12 | ia | ia | – | – | – | – | – | – | – | – | – | – | – | – | – | – | – | –
3 | Cc1cc(SC(Cc2ccccc2)c2ccc(-c3cc(F)c(F)c(F)c3)cc2)ccc1OCC(=O)O (centres unmarked) [Compound 46] | 3.7 | ia | ia | 43 | lower | had diabetes improving effect | 1.5 | 1.5 | 3.0 | 2.8 | 1.9 | 1.9 | 1.3 | 1.3 | 7.8 | 27 | 18 | – | –
4 | Cc1cc(SC(Cc2c(F)cccc2C(F)(F)F)c2ccc(-c3ccccc3)cc2)ccc1OCC(=O)O (centres unmarked) [Compound 66] | 33 | ia | ia | – | – | – | – | – | – | – | – | – | – | – | – | – | – | – | –
5 | Cc1cc(SC(Cc2ccccc2)c2ccc(-c3ccc(C(F)(F)F)cc3)nc2)ccc1OCC(=O)O (centres unmarked) [Compound 106] | 3.2 | ia | ia | 37 | lower | had diabetes improving effect | 1.8 | 1.8 | 3.4 | 3.2 | 2.2 | 2.1 | 1.4 | 1.4 | 6.1 | 23 | 15 | – | –
6 | CCCc1c(OCCCOc2ccc(OCC(=O)O)cc2)ccc(C(C)=O)c1O [Compound L-165041] | – | – | – | – | – | – | – | – | – | – | – | – | – | – | – | – | – | 530 | 10
7 | Cc1cc(SC(Cc2ccccc2)c2ccc(-c3ccc(C(F)(F)F)cc3)cc2)ccc1OCC(=O)O (centres unmarked) [Compound S14] | 2.6 | ia | ia | 31 | lower | had diabetes improving effect | 2.2 | 2.1 | 3.9 | 3.6 | 2.5 | 2.4 | 1.5 | 1.5 | 5.2 | 21 | 12 | – | –
8 | Cc1cc([Se]C(Cc2ccccc2)c2ccc(-c3ccc(C(F)(F)F)cc3)cc2)ccc1OCC(=O)O (centres unmarked) [Compound S164] | 4.5 | ia | ia | – | – | – | – | – | – | – | – | – | – | – | – | – | – | – | –
9 | Cc1cc([Se]Cc2ccc(-c3ccc(C(F)(F)F)cc3)cc2)ccc1OCC(=O)O [Compound S306] | 53 | ia | ia | – | – | – | – | – | – | – | – | – | – | – | – | – | – | – | –
